Test results taken from the NIST ThermoML archive (doi:10.1016/j.jct.2006.10.011).
“And” between values parts separate entries of the source, which are not always exact repeats. Identical values can stand only once. Numbers after ± are expanded uncertainties.

Assay: molar heat capacity at constant pressure
Details: 101.33 kPa, Crystal

O [water]
Details | molar heat capacity at constant pressure
0.4719 K, Low-temperature adiabatic | 4.834e-06 ± 4.7e-06 J/K/mol
0.4841 K, Low-temperature adiabatic | 2.38e-05 ± 2.6e-06 J/K/mol
0.5 K, adiabatic | 2.28e-05 ± 6.4e-06 J/K/mol
0.5191 K, Low-temperature adiabatic | 3.571e-05 ± 4.3e-06 J/K/mol
0.5328 K, Low-temperature adiabatic | 2.99e-05 ± 3.1e-06 J/K/mol
0.5456 K, Low-temperature adiabatic | 3.104e-05 ± 4.2e-06 J/K/mol
0.5713 K, Low-temperature adiabatic | 3.382e-05 ± 4.9e-06 J/K/mol
0.5859 K, Low-temperature adiabatic | 3.177e-05 ± 4.9e-06 J/K/mol
0.5999 K, Low-temperature adiabatic | 3.883e-05 ± 3.7e-06 J/K/mol
0.6287 K, Low-temperature adiabatic | 4.342e-05 ± 3.4e-06 J/K/mol
0.6451 K, Low-temperature adiabatic | 3.414e-05 ± 4.2e-06 J/K/mol
0.6608 K, Low-temperature adiabatic | 4.582e-05 ± 4.6e-06 J/K/mol
0.6935 K, Low-temperature adiabatic | 5.952e-05 ± 5.2e-06 J/K/mol
0.7107 K, Low-temperature adiabatic | 6.565e-05 ± 6.4e-06 J/K/mol
0.7283 K, Low-temperature adiabatic | 7.207e-05 ± 6.4e-06 J/K/mol
0.764 K, Low-temperature adiabatic | 7.817e-05 ± 8.2e-06 J/K/mol
0.783 K, Low-temperature adiabatic | 8.554e-05 ± 7.7e-06 J/K/mol
0.8021 K, Low-temperature adiabatic | 9.413e-05 ± 7.9e-06 J/K/mol
0.8407 K, Low-temperature adiabatic | 0.0001158 ± 8e-06 J/K/mol
0.8618 K, Low-temperature adiabatic | 0.0001219 ± 8e-06 J/K/mol
0.8828 K, Low-temperature adiabatic | 0.0001311 ± 9.6e-06 J/K/mol
0.9245 K, Low-temperature adiabatic | 0.0001506 ± 9.4e-06 J/K/mol
0.9708 K, Low-temperature adiabatic | 0.000169 ± 9.8e-06 J/K/mol
1 K, adiabatic | 0.0001825 ± 1.2e-05 J/K/mol
1.015 K, Low-temperature adiabatic | 0.0001986 ± 1e-05 J/K/mol
1.04 K, Low-temperature adiabatic | 0.0002059 ± 1.1e-05 J/K/mol
1.066 K, Low-temperature adiabatic | 0.0002218 ± 1.3e-05 J/K/mol
1.116 K, Low-temperature adiabatic | 0.0002582 ± 1.3e-05 J/K/mol
1.146 K, Low-temperature adiabatic | 0.0002671 ± 1.5e-05 J/K/mol
1.173 K, Low-temperature adiabatic | 0.0002946 ± 1.7e-05 J/K/mol
1.228 K, Low-temperature adiabatic | 0.0003386 ± 1.7e-05 J/K/mol
1.261 K, Low-temperature adiabatic | 0.0003738 ± 1.9e-05 J/K/mol
1.292 K, Low-temperature adiabatic | 0.0004076 ± 1.8e-05 J/K/mol
1.352 K, Low-temperature adiabatic | 0.0004587 ± 2.1e-05 J/K/mol
1.388 K, Low-temperature adiabatic | 0.0004915 ± 2.1e-05 J/K/mol
1.485 K, Low-temperature adiabatic | 0.0006013 ± 2.4e-05 J/K/mol
1.5 K, adiabatic | 0.0006167 ± 2.6e-05 J/K/mol
1.522 K, Low-temperature adiabatic | 0.0006394 ± 2.5e-05 J/K/mol
1.561 K, Low-temperature adiabatic | 0.0006901 ± 2.5e-05 J/K/mol
1.634 K, Low-temperature adiabatic | 0.0007957 ± 3.1e-05 J/K/mol
1.675 K, Low-temperature adiabatic | 0.0008489 ± 3.1e-05 J/K/mol
1.716 K, Low-temperature adiabatic | 0.0009132 ± 3.1e-05 J/K/mol
1.731 K, Low-temperature adiabatic | 0.0009652 ± 3.2e-05 J/K/mol
1.798 K, Low-temperature adiabatic | 0.001053 ± 3.5e-05 J/K/mol
1.816 K, Low-temperature adiabatic | 0.001109 ± 3.6e-05 J/K/mol
1.843 K, Low-temperature adiabatic | 0.001123 ± 3.5e-05 J/K/mol
1.887 K, Low-temperature adiabatic | 0.001207 ± 3.9e-05 J/K/mol
1.904 K, Low-temperature adiabatic | 0.00125 ± 3.8e-05 J/K/mol
1.977 K, Low-temperature adiabatic | 0.00139 ± 4.3e-05 J/K/mol
1.998 K, Low-temperature adiabatic | 0.001434 ± 4.4e-05 J/K/mol
2 K, adiabatic | 0.001465 ± 4.6e-05 J/K/mol
2.027 K, Low-temperature adiabatic | 0.001484 ± 4.4e-05 J/K/mol
2.076 K, Low-temperature adiabatic | 0.001598 ± 4.7e-05 J/K/mol
2.095 K, Low-temperature adiabatic | 0.001659 ± 4.7e-05 J/K/mol
2.175 K, Low-temperature adiabatic | 0.00184 ± 5.5e-05 J/K/mol
2.2 K, Low-temperature adiabatic | 0.001902 ± 5.4e-05 J/K/mol
2.304 K, Low-temperature adiabatic | 0.002208 ± 5.9e-05 J/K/mol
2.421 K, Low-temperature adiabatic | 0.002544 ± 6.6e-05 J/K/mol
2.5 K, adiabatic | 0.002874 ± 7.2e-05 J/K/mol
2.536 K, Low-temperature adiabatic | 0.002963 ± 7.5e-05 J/K/mol
2.664 K, Low-temperature adiabatic | 0.003432 ± 8.3e-05 J/K/mol
2.791 K, Low-temperature adiabatic | 0.003994 ± 9e-05 J/K/mol
2.932 K, Low-temperature adiabatic | 0.004612 ± 0.0001 J/K/mol
3 K, adiabatic | 0.004998 ± 0.00011 J/K/mol
3.073 K, Low-temperature adiabatic | 0.005384 ± 0.00011 J/K/mol
3.228 K, Low-temperature adiabatic | 0.006206 ± 0.00012 J/K/mol
3.381 K, Low-temperature adiabatic | 0.007213 ± 0.00013 J/K/mol
3.5 K, adiabatic | 0.008013 ± 0.00015 J/K/mol
3.552 K, Low-temperature adiabatic | 0.008311 ± 0.00015 J/K/mol
3.719 K, Low-temperature adiabatic | 0.00968 ± 0.00017 J/K/mol
3.906 K, Low-temperature adiabatic | 0.01117 ± 0.00019 J/K/mol
4 K, adiabatic | 0.01212 ± 0.0002 J/K/mol
4.089 K, Low-temperature adiabatic | 0.01302 ± 0.00021 J/K/mol
4.294 K, Low-temperature adiabatic | 0.01503 ± 0.00023 J/K/mol
4.498 K, Low-temperature adiabatic | 0.01756 ± 0.00026 J/K/mol
4.5 K, adiabatic | 0.01755 ± 0.00026 J/K/mol
4.723 K, Low-temperature adiabatic | 0.02031 ± 0.0003 J/K/mol
4.947 K, Low-temperature adiabatic | 0.02384 ± 0.00033 J/K/mol
5 K, adiabatic | 0.02458 ± 0.00034 J/K/mol
5.194 K, Low-temperature adiabatic | 0.02762 ± 0.00038 J/K/mol
5.44 K, Low-temperature adiabatic | 0.03248 ± 0.00042 J/K/mol
5.5 K, adiabatic | 0.03354 ± 0.00044 J/K/mol
5.713 K, Low-temperature adiabatic | 0.03773 ± 0.00048 J/K/mol
5.985 K, Low-temperature adiabatic | 0.04456 ± 0.00054 J/K/mol
6 K, adiabatic | 0.04478 ± 0.00055 J/K/mol
6.284 K, Low-temperature adiabatic | 0.05186 ± 0.00063 J/K/mol
6.5 K, adiabatic | 0.05874 ± 0.00069 J/K/mol
6.583 K, Low-temperature adiabatic | 0.06156 ± 0.00071 J/K/mol
6.912 K, Low-temperature adiabatic | 0.07207 ± 0.00082 J/K/mol
7 K, adiabatic | 0.07583 ± 0.00085 J/K/mol
7.239 K, Low-temperature adiabatic | 0.08574 ± 0.00094 J/K/mol
7.5 K, adiabatic | 0.09651 ± 0.001 J/K/mol
7.6 K, Low-temperature adiabatic | 0.1009 ± 0.0011 J/K/mol
7.96 K, Low-temperature adiabatic | 0.1206 ± 0.0012 J/K/mol
8 K, adiabatic | 0.1212 ± 0.0012 J/K/mol
8.354 K, Low-temperature adiabatic | 0.1416 ± 0.0014 J/K/mol
8.5 K, adiabatic | 0.1503 ± 0.0015 J/K/mol
8.75 K, Low-temperature adiabatic | 0.1684 ± 0.0016 J/K/mol
9 K, adiabatic | 0.1842 ± 0.0017 J/K/mol
9.185 K, Low-temperature adiabatic | 0.1972 ± 0.0018 J/K/mol
9.187 K, Low-temperature adiabatic | 0.1979 ± 0.0018 J/K/mol
9.5 K, adiabatic | 0.2231 ± 0.002 J/K/mol
9.619 K, Low-temperature adiabatic | 0.2343 ± 0.0021 J/K/mol
9.645 K, Low-temperature adiabatic | 0.2352 ± 0.0021 J/K/mol
10 K, adiabatic | 0.2672 ± 0.0024 J/K/mol
10.11 K, Low-temperature adiabatic | 0.2752 ± 0.0024 J/K/mol and 0.2768 ± 0.0024 J/K/mol
10.59 K, Low-temperature adiabatic | 0.3268 ± 0.0027 J/K/mol
10.6 K, Low-temperature adiabatic | 0.3266 ± 0.0027 J/K/mol
11 K, adiabatic | 0.3709 ± 0.0029 J/K/mol
11.12 K, Low-temperature adiabatic | 0.3841 ± 0.003 J/K/mol
11.66 K, Low-temperature adiabatic | 0.4516 ± 0.0034 J/K/mol
12 K, adiabatic | 0.4948 ± 0.0036 J/K/mol
12.23 K, Low-temperature adiabatic | 0.5267 ± 0.0038 J/K/mol
12.82 K, Low-temperature adiabatic | 0.6103 ± 0.0043 J/K/mol
13 K, adiabatic | 0.6372 ± 0.0044 J/K/mol
13.43 K, Low-temperature adiabatic | 0.7044 ± 0.0047 J/K/mol
14 K, adiabatic | 0.7967 ± 0.0052 J/K/mol
14.08 K, Low-temperature adiabatic | 0.8099 ± 0.0053 J/K/mol
14.75 K, Low-temperature adiabatic | 0.9261 ± 0.0059 J/K/mol
15 K, adiabatic | 0.9716 ± 0.0061 J/K/mol
15.46 K, Low-temperature adiabatic | 1.058 ± 0.0065 J/K/mol
16 K, adiabatic | 1.16 ± 0.007 J/K/mol
16.19 K, Low-temperature adiabatic | 1.197 ± 0.0071 J/K/mol
16.99 K, Low-temperature adiabatic | 1.356 ± 0.0079 J/K/mol
17 K, adiabatic | 1.358 ± 0.0079 J/K/mol
17.79 K, Low-temperature adiabatic | 1.518 ± 0.0087 J/K/mol
18 K, adiabatic | 1.564 ± 0.0089 J/K/mol
18.66 K, Low-temperature adiabatic | 1.704 ± 0.0095 J/K/mol
19 K, adiabatic | 1.777 ± 0.0099 J/K/mol
19.55 K, Low-temperature adiabatic | 1.895 ± 0.011 J/K/mol
19.6 K, Low-temperature adiabatic | 1.908 ± 0.011 J/K/mol
20 K, adiabatic | 1.993 ± 0.011 J/K/mol
20.58 K, Low-temperature adiabatic | 2.12 ± 0.011 J/K/mol
21.46 K, Low-temperature adiabatic | 2.315 ± 0.012 J/K/mol
22 K, adiabatic | 2.433 ± 0.013 J/K/mol
22.52 K, Low-temperature adiabatic | 2.55 ± 0.013 J/K/mol
23.59 K, Low-temperature adiabatic | 2.78 ± 0.015 J/K/mol
24 K, adiabatic | 2.873 ± 0.015 J/K/mol
24.75 K, Low-temperature adiabatic | 3.037 ± 0.016 J/K/mol
25.92 K, Low-temperature adiabatic | 3.292 ± 0.017 J/K/mol
26 K, adiabatic | 3.306 ± 0.017 J/K/mol
27.21 K, Low-temperature adiabatic | 3.562 ± 0.018 J/K/mol
28 K, adiabatic | 3.728 ± 0.019 J/K/mol
28.49 K, Low-temperature adiabatic | 3.828 ± 0.02 J/K/mol
29.94 K, Low-temperature adiabatic | 4.128 ± 0.021 J/K/mol
30 K, adiabatic | 4.139 ± 0.021 J/K/mol
31.38 K, Low-temperature adiabatic | 4.423 ± 0.022 J/K/mol
32 K, adiabatic | 4.543 ± 0.023 J/K/mol
32.99 K, Low-temperature adiabatic | 4.735 ± 0.024 J/K/mol
34 K, adiabatic | 4.947 ± 0.025 J/K/mol
34.59 K, Low-temperature adiabatic | 5.067 ± 0.026 J/K/mol
36 K, adiabatic | 5.363 ± 0.027 J/K/mol
36.02 K, Low-temperature adiabatic | 5.371 ± 0.027 J/K/mol
37.45 K, Low-temperature adiabatic | 5.677 ± 0.029 J/K/mol
38 K, adiabatic | 5.804 ± 0.029 J/K/mol
